Legend:
GlbB [1] = biological target: T1, GlbB (Caldimonas brevitalea, UniProt A8KCI8); test: steady-state kinetics of hydroxylation; format: biochemical; conditions: Fe(II)/alpha-ketoglutarate-dependent C4 hydroxylation
T1 sequence (A8KCI8 1-286): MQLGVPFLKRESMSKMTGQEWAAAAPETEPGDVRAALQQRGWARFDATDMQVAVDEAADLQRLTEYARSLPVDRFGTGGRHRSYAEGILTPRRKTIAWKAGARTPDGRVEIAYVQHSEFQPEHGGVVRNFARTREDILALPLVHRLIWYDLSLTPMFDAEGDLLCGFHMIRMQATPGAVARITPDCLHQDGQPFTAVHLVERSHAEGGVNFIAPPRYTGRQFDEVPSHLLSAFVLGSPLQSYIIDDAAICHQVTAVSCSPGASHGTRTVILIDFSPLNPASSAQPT

GlbB [2] = biological target: T1, GlbB; test: steady-state kinetics of oxidation; format: biochemical; conditions: Fe(II)/alpha-ketoglutarate-dependent; product is the sulfoxide

Row | SMILES | KM (GlbB [1]) | KM (GlbB [2])
1 | CC(C)C[C@H](N)C(=O)O [L-Leu] | steady-state kinetic parameters were obtained for hydroxylation of L-Lys, L-Leu, and L-Met (Figure S5) | –
2 | CSCC[C@H](N)C(=O)O [L-Met] | – | steady-state kinetic parameters were obtained for hydroxylation of L-Lys, L-Leu, and L-Met (Figure S5)
3 | NCCCC[C@H](N)C(=O)O [compound 3, L-Lys] | steady-state kinetic parameters were obtained for hydroxylation of L-Lys, L-Leu, and L-Met (Figure S5) | –

Reference: paper PMC6374188 (Organic & biomolecular chemistry, 2019)
